Series [1] has as its system natural sweat (human axillary sweat). Particulars: 1 mg of active material per ml of sweat, i.e. 0.1%, incubated 18 h then 24 h at 37° C., with respect to control sweat without deodorant agent; for Mean % of reduction in the odor annoyance (mean over 18 h and 24 h): hedonic grade. Here is the method: A test of inhibition of the evolution of odors was carried out on natural sweat.
The principle of this test consists in adding the deodorant agent to fresh sweat and then in carrying out an olfactory evaluation by a jury of experts after incubating for 18 hours and then 24 hours at 37° C.
Thus, the axillary sweat was taken from several human models in a sauna and was combined to produce a sample of sweat. In order to obtain the characteristic nauseating odor of sweat, this sample of sweat was incubated […]. […] The active substance was then introduced into each of the flasks to be tested.
Per 1 mg of active material per ml of sweat, i.e. 0.1%: […]

Another series deals with Corynebacterium xerosis. Type of series: cell-based. As to conditions: dilutions in agar medium. Here is the method:
(§1) The microbiostatic activity of MnCl2 was determined in comparison with triclosan (deodorant active principle of the prior art) by the method of dilutions in agar medium.
(§2) One hundred μl of the ethanolic solution were added to 0.9 ml of agar culture heated beyond the melting point to 45° C. (medium chosen as a function of the nutrient requirements of the strain studied). After stirring with a Vortex device, successive dilutions in geometric progression in a ratio of 2 of the solution obtained were carried out using agar culture medium heated beyond the melting point to 45° C. One ml of each dilution was introduced into the wells of a microplate (Flacon [sic], 24 wells). Four μl of microbial suspension were deposited at the surface of the agar medium.
(§3) Two control wells were also prepared: 100 μl H2O+0.9 ml of culture medium (growth control), 100 μl ethanol+0.9 ml of culture medium.
(§4) After incubating under conditions (temperature, atmosphere and duration) dependent on the strain studied, the Minimum Inhibitory Concentration (MIC) is given by the lowest concentration of product which inhibits microbial growth.
(§5) Results: expressed in % w/v

Series [2] deals with Staphylococcus epidermidis. Format: cell-based. Particulars: dilutions in agar medium. Here is the method:
as §1, §2, §3, §4, §5

The conditions of series [3]: background statement; cited from earlier work.

`Oc1cc(Cl)ccc1Oc1ccc(Cl)cc1Cl` [Triclosan, 2,4,4′-trichloro-2′-hydroxydiphenyl ether]: in series [1], the “Mean % of reduction in the strength of the odor (mean over 18 h and 24 h)” value is −39%; the “Mean % of reduction in the odor annoyance (mean over 18 h and 24 h)” value is −27%. The “Minimum Inhibitory Concentration (MIC)” value in the series with Corynebacterium xerosis was 4 × 10^−6 % w/v. Moreover, the “Minimum Inhibitory Concentration (MIC)” value in series [2] is given as 3 × 10^−8 % w/v. Also, the solubility in water entry in series [3] is “insoluble”.

In the case of manganese chloride [MnCl2], in series [1], the “Mean % of reduction in the strength of the odor (mean over 18 h and 24 h)” value is listed as −43%; the “Mean % of reduction in the odor annoyance (mean over 18 h and 24 h)” value was −31%. Besides, the “Minimum Inhibitory Concentration (MIC)” value in the series on Corynebacterium xerosis is reported as 0.23 % w/v. Besides, the “Minimum Inhibitory Concentration (MIC)” value in series [2] came to 0.23 % w/v.

Source of the values: patent publication US20030165446A1, “Divalent manganese salts for reducing odour resulting from bacterial decomposition of human perspiration” (priority 2003, published 2003).
